From the NIST ThermoML archive (doi:10.1016/j.jct.2013.04.013)

What was measured:
[1] = 101.33 kPa, Liquid; for thermal conductivity: Hot wire method; for viscosity: Cone and plate viscometry
[2] = molar heat capacity at constant pressure; conditions: 101.33 kPa, Liquid, Small sample (50 mg) DSC

CCCCCCCCCCCCCC[P+](CCCCCC)(CCCCCC)CCCCCC.O=S(=O)([N-]S(=O)(=O)C(F)(F)F)C(F)(F)F
Conditions | molar heat capacity at constant pressure [J/K/mol] | thermal conductivity [W/m/K]
[1], 285.65 K | – | 0.139
[1], 293.14 K | – | 0.138
[1], 297.72 K | – | 0.137
[1], 302.37 K | – | 0.137
[1], 313.04 K | – | 0.135
[1], 323.58 K | – | 0.134
[1], 333.55 K | – | 0.135
[2], 333.15 K | 1367.6 | –
[2], 338.15 K | 1372.2 | –
[2], 343.15 K | 1378.3 | –
[2], 348.15 K | 1386.7 | –
[2], 353.15 K | 1395.1 | –
[2], 358.15 K | 1403.5 | –
[2], 363.15 K | 1413.4 | –
[2], 368.15 K | 1426.4 | –
[2], 373.15 K | 1435.6 | –
[2], 378.15 K | 1440.9 | –
[2], 383.15 K | 1450.1 | –
[2], 388.15 K | 1457.7 | –
[2], 393.15 K | 1465.4 | –
[2], 398.15 K | 1473.8 | –
[2], 403.15 K | 1480.6 | –
[2], 408.15 K | 1488.3 | –
[2], 413.15 K | 1495.9 | –
[2], 418.15 K | 1502.8 | –
[2], 423.15 K | 1509.7 | –
[2], 428.15 K | 1517.3 | –
[2], 438.15 K | 1533.4 | –
[2], 443.15 K | 1536.4 | –
[2], 448.15 K | 1542.5 | –
[2], 453.15 K | 1550.2 | –
[2], 458.15 K | 1556.3 | –
[2], 463.15 K | 1560.9 | –

CCCC[P+](C)(CCCC)CCCC.COS(=O)(=O)[O-] [tributylmethylphosphonium methyl sulfate]
[1]
Conditions | thermal conductivity [W/m/K]
283.34 K | 0.157
293.28 K | 0.156
298.36 K | 0.155
303.45 K | 0.155
313.5 K | 0.153
323.6 K | 0.153
333.58 K | 0.153
343.61 K | 0.153
353.51 K | 0.153

CC(CC(C)(C)C)CP(=O)([O-])CC(C)CC(C)(C)C.CCCCCCCCCCCCCC[P+](CCCCCC)(CCCCCC)CCCCCC
Conditions | molar heat capacity at constant pressure [J/K/mol] | thermal conductivity [W/m/K] | viscosity [mPa·s]
[1], 282.47 K | – | 0.137 | –
[1], 292.94 K | – | 0.136 | –
[1], 298.04 K | – | 0.135 | –
[1], 298.15 K | – | – | 847.3
[1], 303.15 K | – | 0.135 | –
[1], 313.15 K | – | – | 568.54
[1], 313.45 K | – | 0.133 | –
[1], 323.15 K | – | – | 387.46
[1], 323.45 K | – | 0.132 | –
[1], 333.15 K | – | – | 125.61
[1], 333.55 K | – | 0.131 | –
[1], 343.59 K | – | 0.131 | –
[1], 353.62 K | – | 0.131 | –
[2], 293.15 K | 1619.2 | – | –
[2], 298.15 K | 1634.7 | – | –
[2], 303.15 K | 1644.7 | – | –
[2], 308.15 K | 1655.6 | – | –
[2], 313.15 K | 1667.2 | – | –
[2], 318.15 K | 1678 | – | –
[2], 323.15 K | 1688 | – | –
[2], 328.15 K | 1698.1 | – | –
[2], 333.15 K | 1708.2 | – | –
[2], 338.15 K | 1717.4 | – | –
[2], 343.15 K | 1725.9 | – | –
[2], 348.15 K | 1736 | – | –
[2], 353.15 K | 1745.3 | – | –
[2], 358.15 K | 1754.5 | – | –
[2], 363.15 K | 1763.8 | – | –

CCCCCCCCCCCCCC[P+](CCCCCC)(CCCCCC)CCCCCC.FC(F)(F)C(F)(F)[P-](F)(F)(F)(C(F)(F)C(F)(F)F)C(F)(F)C(F)(F)F
[1]
Conditions | thermal conductivity [W/m/K]
282.19 K | 0.126
292.99 K | 0.125
298.41 K | 0.125
303.54 K | 0.125
314.37 K | 0.123
325.65 K | 0.123
334.58 K | 0.123
344.18 K | 0.123
355.07 K | 0.121
